# Data from patent US6335372B1, “Treatment of obsessive compulsive disorder” (Orion Corporation, priority 2000, dated 2002).
# System: obsessive-compulsive symptoms
# Test: Treatment of two patients having obsessive-compulsive symptoms with deramciclane
# Assay type: in vivo
# Details: one 15 mg tablet twice daily (30 mg/day), 8 week treatment period
# Protocol: The efficacy of deramciclane in the treatment of OCD, is illustrated with two patients having obsessive-compulsive symptoms. These patients received one 15 mg tablet of deramciclane twice daily (=30 mg/day) for an eight-week active treatment period.
smiles,measurement,value
"CN(C)CCO[C@]1(c2ccccc2)C[C@H]2CC[C@]1(C)C2(C)C [deramciclane, (1R,2S,4R)-(−)-2-phenyl 2-(dimethylaminoethoxy)-1,7,7-trimethyl-bicyclo[2.2.1]heptane]",obsessive-compulsive symptoms as assessed by the responsible physician,reduced in a clinically significant way
